The structures appear in SMILES notation.

A short description of data set [1]: Stability of HPLC sample and standard solutions in diluent. In kind it is physicochemical. The conditions noted are these: approx. 20 mg in 100 mL diluent (45:55 v/v water and acetonitrile); room temperature for 2 days protected from sunlight. On the procedure: Approximately 20 mg of the crystalline halobetasol propionate sample to be assayed, accurately weighed, was transferred into a 100-mL volumetric flask, and the flask was filled to volume with diluent. The solution was sonicated to ensure complete dissolution. The sample solution was stable at room temperature for 2 days protected from sunlight.
Approximately 20 mg of a crystalline halobetasol propionate standard, accurately weighed, was transferred into a 100-mL volumetric flask, and the flask was filled to volume with diluent. The solution was sonicated to ensure complete dissolution. The standard solution was stable at room temperature for 2 days protected from sunlight.

For data set [2] the following is noted: cited from earlier work.

Take `CCC(=O)O[C@]1(C(=O)CCl)[C@@H](C)C[C@H]2[C@@H]3C[C@H](F)C4=CC(=O)C=C[C@]4(C)[C@@]3(F)[C@@H](O)C[C@@]21C` [Halobetasol propionate, (6α,11β,16β)-21-chloro-6,9-difluoro-11-hydroxy-16-methyl-17-(1-oxopropoxy)pregna-1,4-diene-3,20-dione]: the “stability of the solution” value in data set [1] is reported as “stable”. Further, in data set [2] (organic solvents), the “solubility in organic solvents” value is “soluble”. Further, the solubility in water entry in data set [2] (water) is “insoluble”.

These data come from patent US8361997B2, “Process for preparing a crystalline form of halobetasol propionate” (Taro Pharmaceutical North America, Inc., priority 2005, dated 2013).
